According to patent US9730679B1, “Device for sterile uterine sampling and drug delivery” (University of South Florida, priority 2012, dated 2017):
Converted amounts (≈) assume the structure as drawn.

How the values were obtained:
[1] = system: normal human ovarian surface epithelial (OSE) cells; type: cell-based; conditions: 5 days
Procedure: Cytotoxicity of the DCNPs was determined by treating normal human ovarian surface epithelial (OSE) cells with different concentrations of doxycycline-loaded nanoparticles, then monitoring cell viability over the next five days. The OSE cells were cultured for 4 to 7 days in flasks containing medium199/MCDB105 media supplemented with 10% fetal bovine serum. The cells were removed from the flasks and counted, and then 100 μL of medium containing cells was added to the wells of a 96-well plate to give final cell concentrations of 5×10^2, 1.0×10^3, or 2.0×10^3 cells/mL. After 24 hours incubation at 37° C., the cells were treated with blank nanoparticles, DCNP4 (1 and 2 μg/mL), DCNP6 (1 and 2 μg/mL), or unencapsulated doxycycline (1 and 2 μg/mL). The plate was then incubated at 37° C. Bright microscopy was used to examine the cell morphology after treatment just before the assessing for cytotoxicity. Cytotoxicity was assessed on days 1, 3, and 5 by WST-1 assay. WST-1 assay reagent (10 μL) was added to each well, followed by incubation for another 4 hours at 37° C. and then spectrophotometric assessment of cell viability. […] This dye was quantified using a Biotex Synergy multiplate reader to measure absorbance at 450 nm (reference wavelength was 630 nm). All treatments were assayed in triplicate (n=3) and calculated according to equation 5: […]

[2] = system: Escherichia coli (ATCC 25922); assay: Minimum inhibitory concentration, visual turbidimetric method with OD600 of MIC tubes; type: cell-based; conditions: ATCC25922, 4 h, E. coli, four hours incubation at 37° C., read-out: minimum inhibitory doxycycline concentration, MIC
Procedure: To determine the antibacterial activity of the doxycycline-loaded chitosan nanoparticles, minimum inhibitory concentrations (MICs) and minimum bactericidal concentrations (MBCs) were evaluated. The procedures for both assays were adopted from Lee et al. (Blanchet […]. Forward Selection of Explanatory Variables. Ecology. 2008; 89:2623-2632). MIC is the lowest concentration of DCNPs that inhibits bacterial growth. For the analyses, a visual turbidimetric method was used. Freshly prepared nanoparticles, blank and drug-loaded, were UV-sterilized for ten minutes. […] A 500 μL aliquot of this solution with sterilized particles was added to a tube containing Luria-Bertani (LB) broth for a total volume of 2 mL. A serial dilution, with a dilution factor of 0.3, was performed for the remaining six tubes. A parallel series of experiments was also run using unencapsulated doxycycline. Under sterile conditions, the tubes containing particles were inoculated with 1.0×10^5 colony-forming units (CFUs)/mL of Escherichia coli cells in LB broth, then incubated at 37° C. under agitation for four hours. Following the incubation, the tubes were assessed visually for the appearance of turbidity (i.e., bacterial growth). […] All MIC tubes were analyzed to assess the amount of bacteria present by measuring optical density of the suspension at 600 nm (OD600) and then calculating the number of bacterial cells present.

- MIC [2]: 13 µg/mL (≈ 29.3 µM)
Structure (SMILES): C[C@H]1c2cccc(O)c2C(=O)C2=C(O)[C@]3(O)C(=O)C(C(N)=O)=C(O)[C@@H](N(C)C)[C@@H]3[C@@H](O)[C@@H]21 [Doxy, Doxycycline]
- decrease in cell viability [1]: 61%
